ChEMBL document CHEMBL3885861, “Open TG-GATES”

Species on record: Rattus norvegicus
Test: Open TG-GATES - Regimen: Daily Repeat
Format: toxicity, organism-based, Sprague-Dawley
Parameters: regimen Daily Repeat, gender Male, age 6 weeks
Settings: in vivo, iv, route intravenous injection; for APTT / Bas / Eos / Fbg / Hb / Ht / Lym / MCHC / MCV / Mono / Neu / PT / Plat / RBC / Ret / WBC / MCH: tissue Blood; for KIDNEY_L / KIDNEY_R / KIDNEY_TOTAL: tissue Kidney; for LIVER: tissue Liver
[1] = 0 mg/kg, 72 h, dose level Control, time 3 day
[2] = 0 mg/kg, 72 h, tissue Plasma, dose level Control, time 3 day
[3] = 0 mg/kg, […], dose level Control, time 7 day
[4] = 0 mg/kg, […], dose level Control, time 14 day
[5] = 0 mg/kg, […], dose level Control, time 28 day
[6] = 0 mg/kg, […], tissue Plasma, dose level Control, time 7 day
[7] = 0 mg/kg, […], tissue Plasma, dose level Control, time 14 day
[8] = 0 mg/kg, […], tissue Plasma, dose level Control, time 28 day
[9] = 1 mg/kg, 72 h, dose level Low, time 3 day
[10] = 1 mg/kg, 72 h, tissue Plasma, dose level Low, time 3 day
[11] = 1 mg/kg, […], dose level Low, time 7 day
[12] = 1 mg/kg, […], dose level Low, time 14 day
[13] = 1 mg/kg, […], dose level Low, time 28 day
[14] = 1 mg/kg, […], tissue Plasma, dose level Low, time 7 day
[15] = 1 mg/kg, […], tissue Plasma, dose level Low, time 14 day
[16] = 1 mg/kg, […], tissue Plasma, dose level Low, time 28 day

CARBOPLATIN
TERMINAL_BW [1]: 221.4 g
APTT [1]: 23.3 s
Bas [1]: 0%
Eos [1]: 0.8%
Fbg [1]: 298.8 mg/dL
Hb [1]: 13 g/dL
Ht [1]: 40.2%
Lym [1]: 80.4%
MCHC [1]: 32.2%
MCV [1]: 63.6 fL
Mono [1]: 2.6%
Neu [1]: 15.4%
PT [1]: 16.2 s
Plat [1]: 127.8 x10_4/uL
RBC [1]: 633 x10_4/ul
Ret [1]: 5.4%
WBC [1]: 112.5 x10_2/uL
KIDNEY_L [1]: 1 g
KIDNEY_R [1]: 1 g
KIDNEY_TOTAL [1]: 2 g
ALP [2]: 1505 IU/L
ALT [2]: 38.6 IU/L
AST [2]: 67.6 IU/L
BUN [2]: 18 mg/dL
CRE [2]: 0.2 mg/dL
DBIL [2]: 0 mg/dL
GLC [2]: 182.4 mg/dL
IP [2]: 7.3 mg/dL
K [2]: 4.6 meq/L
LDH [2]: 206.4 IU/L
PL [2]: 150 mg/dL
RALB [2]: 3 g/dL
TBIL [2]: 0.004 mg/dL
TC [2]: 78.2 mg/dL
TG [2]: 103 mg/dL
TP [2]: 5.4 g/dL
gamma-GTP [2]: 1.6 IU/L
TERMINAL_BW [3]: 254.4 g
TERMINAL_BW [4]: 298 g
TERMINAL_BW [5]: 364.6 g
APTT [3]: 23.5 s
Bas [3]: 0%
Eos [3]: 0.8%
Fbg [3]: 312.2 mg/dL
Ht [3]: 40.5%
Lym [3]: 81.4%
MCH [3]: 20.6 pg
MCHC [3]: 32.4%
MCV [3]: 63.6 fL
Mono [3]: 2.4%
Plat [3]: 123.2 x10_4/uL
RBC [3]: 638.2 x10_4/ul
Ret [3]: 4.9%
WBC [3]: 120.2 x10_2/uL
APTT [4]: 25.2 s
Bas [4]: 0%
Eos [4]: 1%
Fbg [4]: 296.8 mg/dL
Hb [4]: 13.6 g/dL
Ht [4]: 40.5%
Lym [4]: 80.8%
MCHC [4]: 33.6%
MCV [4]: 60.3 fL
Mono [4]: 3.4%
Plat [4]: 128.4 x10_4/uL
RBC [4]: 672.4 x10_4/ul
Ret [4]: 3.6%
WBC [4]: 136.2 x10_2/uL
APTT [5]: 24.2 s
Bas [5]: 0%
Eos [5]: 1%
Fbg [5]: 308.6 mg/dL
Ht [5]: 42.1%
Lym [5]: 82.2%
MCH [5]: 19.9 pg
MCV [5]: 56.5 fL
Mono [5]: 2.6%
PT [5]: 16 s
Plat [5]: 108.9 x10_4/uL
RBC [5]: 746.2 x10_4/ul
Ret [5]: 2.1%
WBC [5]: 150.1 x10_2/uL
KIDNEY_L [3]: 1.1 g
KIDNEY_R [3]: 1.2 g
KIDNEY_TOTAL [3]: 2.3 g
KIDNEY_L [4]: 1.2 g
KIDNEY_R [4]: 1.2 g
KIDNEY_TOTAL [4]: 2.4 g
KIDNEY_L [5]: 1.3 g
KIDNEY_R [5]: 1.3 g
KIDNEY_TOTAL [5]: 2.7 g
LIVER [4]: 13.1 g
LIVER [5]: 14.9 g
ALP [6]: 1596.2 IU/L
ALT [6]: 39 IU/L
AST [6]: 70.6 IU/L
BUN [6]: 17.6 mg/dL
CRE [6]: 0.2 mg/dL
DBIL [6]: 0 mg/dL
GLC [6]: 182.6 mg/dL
IP [6]: 7.8 mg/dL
K [6]: 4.7 meq/L
LDH [6]: 172.8 IU/L
PL [6]: 144 mg/dL
RALB [6]: 3.1 g/dL
TBIL [6]: 0.002 mg/dL
TC [6]: 74.6 mg/dL
TG [6]: 87.8 mg/dL
TP [6]: 5.6 g/dL
gamma-GTP [6]: 2.2 IU/L
ALP [7]: 1124 IU/L
ALT [7]: 38.2 IU/L
AST [7]: 68.8 IU/L
BUN [7]: 17.2 mg/dL
CRE [7]: 0.2 mg/dL
DBIL [7]: 0 mg/dL
GLC [7]: 203 mg/dL
IP [7]: 6.9 mg/dL
K [7]: 4.3 meq/L
LDH [7]: 155.6 IU/L
Na [7]: 140.4 meq/L
PL [7]: 146 mg/dL
RALB [7]: 3 g/dL
TBIL [7]: 0.008 mg/dL
TC [7]: 73.8 mg/dL
TG [7]: 110.8 mg/dL
TP [7]: 5.7 g/dL
gamma-GTP [7]: 3.6 IU/L
ALP [8]: 1264.8 IU/L
ALT [8]: 43 IU/L
AST [8]: 76.2 IU/L
BUN [8]: 17.6 mg/dL
CRE [8]: 0.2 mg/dL
DBIL [8]: 0.002 mg/dL
IP [8]: 7.1 mg/dL
K [8]: 4.3 meq/L
LDH [8]: 202 IU/L
PL [8]: 138.6 mg/dL
RALB [8]: 3 g/dL
TBIL [8]: 0.01 mg/dL
TC [8]: 67.2 mg/dL
TG [8]: 113 mg/dL
TP [8]: 6 g/dL
gamma-GTP [8]: 2.2 IU/L
TERMINAL_BW [9]: 215.8 g
APTT [9]: 23.9 s
Bas [9]: 0%
Eos [9]: 0.8%
Fbg [9]: 317.8 mg/dL
Hb [9]: 13 g/dL
Lym [9]: 83%
MCHC [9]: 32.2%
Mono [9]: 2.8%
Neu [9]: 12.6%
PT [9]: 16.2 s
Plat [9]: 122.5 x10_4/uL
RBC [9]: 647.8 x10_4/ul
Ret [9]: 4.5%
WBC [9]: 100.1 x10_2/uL
KIDNEY_L [9]: 0.9 g
KIDNEY_R [9]: 0.9 g
KIDNEY_TOTAL [9]: 1.9 g
LIVER [9]: 9.5 g
ALP [10]: 1749.2 IU/L
ALT [10]: 44.2 IU/L
AST [10]: 72.8 IU/L
BUN [10]: 16.6 mg/dL
CRE [10]: 0.2 mg/dL
DBIL [10]: 0 mg/dL
GLC [10]: 175.8 mg/dL
IP [10]: 6.9 mg/dL
K [10]: 4.6 meq/L
LDH [10]: 189.6 IU/L
PL [10]: 147.8 mg/dL
RALB [10]: 3.1 g/dL
TBIL [10]: 0.004 mg/dL
TC [10]: 76.2 mg/dL
TG [10]: 106.8 mg/dL
TP [10]: 5.5 g/dL
gamma-GTP [10]: 1.4 IU/L
TERMINAL_BW [11]: 248.6 g
TERMINAL_BW [12]: 299.2 g
TERMINAL_BW [13]: 348.7 g
APTT [11]: 22.2 s
Bas [11]: 0%
Eos [11]: 1%
Fbg [11]: 304 mg/dL
Ht [11]: 40.7%
Lym [11]: 80.8%
MCH [11]: 19.9 pg
MCHC [11]: 32.4%
Mono [11]: 2.4%
Plat [11]: 136.3 x10_4/uL
RBC [11]: 662 x10_4/ul
Ret [11]: 4.6%
WBC [11]: 108.6 x10_2/uL
APTT [12]: 26.4 s
Bas [12]: 0%
Eos [12]: 1%
Fbg [12]: 302.2 mg/dL
Hb [12]: 14.1 g/dL
Ht [12]: 42.1%
Lym [12]: 83.2%
MCHC [12]: 33.4%
MCV [12]: 60.3 fL
Mono [12]: 2.5%
Neu [12]: 12%
Plat [12]: 111 x10_4/uL
RBC [12]: 698.8 x10_4/ul
Ret [12]: 3.1%
WBC [12]: 122.2 x10_2/uL
APTT [13]: 24.7 s
Bas [13]: 0%
Eos [13]: 1.2%
Fbg [13]: 311.6 mg/dL
Ht [13]: 42.3%
Lym [13]: 83.2%
MCH [13]: 19.1 pg
MCHC [13]: 35.1%
MCV [13]: 54.4 fL
Mono [13]: 2.6%
Neu [13]: 12%
Plat [13]: 105.6 x10_4/uL
RBC [13]: 777.8 x10_4/ul
Ret [13]: 1.7%
WBC [13]: 94.6 x10_2/uL
KIDNEY_L [11]: 1 g
KIDNEY_R [11]: 1 g
KIDNEY_TOTAL [11]: 2 g
KIDNEY_L [12]: 1.2 g
KIDNEY_R [12]: 1.2 g
KIDNEY_TOTAL [12]: 2.4 g
KIDNEY_L [13]: 1.3 g
KIDNEY_R [13]: 1.3 g
KIDNEY_TOTAL [13]: 2.6 g
LIVER [11]: 11.2 g
LIVER [13]: 13.5 g
ALP [14]: 1760.4 IU/L
ALT [14]: 40.6 IU/L
AST [14]: 75 IU/L
BUN [14]: 16.4 mg/dL
CRE [14]: 0.2 mg/dL
Ca [14]: 11 mg/dL
DBIL [14]: 0 mg/dL
IP [14]: 7.5 mg/dL
K [14]: 4.6 meq/L
LDH [14]: 138.8 IU/L
Na [14]: 140.2 meq/L
PL [14]: 138.2 mg/dL
RALB [14]: 3 g/dL
TBIL [14]: 0.008 mg/dL
TG [14]: 94.6 mg/dL
TP [14]: 5.6 g/dL
gamma-GTP [14]: 2.2 IU/L
ALP [15]: 1603 IU/L
ALT [15]: 38 IU/L
AST [15]: 80.4 IU/L
BUN [15]: 18 mg/dL
CRE [15]: 0.2 mg/dL
DBIL [15]: 0.004 mg/dL
GLC [15]: 171.6 mg/dL
IP [15]: 6.4 mg/dL
K [15]: 4.5 meq/L
LDH [15]: 160 IU/L
PL [15]: 130.2 mg/dL
RALB [15]: 3.1 g/dL
TBIL [15]: 0.01 mg/dL
TC [15]: 64.8 mg/dL
TG [15]: 101.6 mg/dL
TP [15]: 5.9 g/dL
gamma-GTP [15]: 2.6 IU/L
ALP [16]: 1005 IU/L
ALT [16]: 40.4 IU/L
CRE [16]: 0.2 mg/dL
DBIL [16]: 0 mg/dL
GLC [16]: 181 mg/dL
IP [16]: 6 mg/dL
K [16]: 4.2 meq/L
LDH [16]: 140.2 IU/L
PL [16]: 133.8 mg/dL
RALB [16]: 3 g/dL
TBIL [16]: 0.006 mg/dL
TC [16]: 68.8 mg/dL
TG [16]: 102.2 mg/dL
TP [16]: 6 g/dL
gamma-GTP [16]: 2.4 IU/L
